Test results taken from article PMC3088120 (ACS medicinal chemistry letters, 2011).

Tests used:
[1] = tested on: E. coli and S. aureus DNA gyrase; details: in vitro; cited from earlier work
E. coli DNA gyrase = E. coli DNA gyrase (Escherichia coli, UniProt P0AES4+P0AES6); assay: in vitro dsDNA break; format: biochemical; details: 1 tested at ≤3.3 mM
Sequence of E. coli DNA gyrase (P0AES4 whole entry, one chain of several): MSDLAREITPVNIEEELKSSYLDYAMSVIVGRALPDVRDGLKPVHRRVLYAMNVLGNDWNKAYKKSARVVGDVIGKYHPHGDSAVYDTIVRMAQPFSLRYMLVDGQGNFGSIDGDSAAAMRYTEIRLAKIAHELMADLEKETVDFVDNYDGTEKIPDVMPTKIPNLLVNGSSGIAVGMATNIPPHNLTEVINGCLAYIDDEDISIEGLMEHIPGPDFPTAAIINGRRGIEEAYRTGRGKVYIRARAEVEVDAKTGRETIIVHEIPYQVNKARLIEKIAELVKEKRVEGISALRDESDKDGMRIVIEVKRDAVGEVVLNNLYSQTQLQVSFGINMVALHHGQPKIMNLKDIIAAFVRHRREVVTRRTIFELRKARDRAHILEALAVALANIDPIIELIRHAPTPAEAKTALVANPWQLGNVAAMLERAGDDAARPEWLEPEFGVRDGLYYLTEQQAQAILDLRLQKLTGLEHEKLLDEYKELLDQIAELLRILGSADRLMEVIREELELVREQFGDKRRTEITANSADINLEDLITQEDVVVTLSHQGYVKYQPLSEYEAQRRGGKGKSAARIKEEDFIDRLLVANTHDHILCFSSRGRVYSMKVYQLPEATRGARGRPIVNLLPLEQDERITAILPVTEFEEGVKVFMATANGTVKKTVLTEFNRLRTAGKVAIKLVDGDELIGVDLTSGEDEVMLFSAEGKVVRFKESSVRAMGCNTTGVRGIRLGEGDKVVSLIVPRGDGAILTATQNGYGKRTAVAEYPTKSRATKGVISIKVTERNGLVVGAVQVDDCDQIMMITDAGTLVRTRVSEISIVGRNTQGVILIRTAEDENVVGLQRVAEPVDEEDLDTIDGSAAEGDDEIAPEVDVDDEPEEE

| SMILES | release of dsDNA ends [1] | generation of dsDNA breaks / linearized DNA (E. coli DNA gyrase) |
| --- | --- | --- |
| COc1ccc2ncc(F)c([C@@H](O)CC[C@@H]3CCN(CCSc4cccs4)C[C@@H]3C(=O)O)c2c1 [NXL101] | does not release dsDNA ends |  |
| O=C(O)c1cn(C2CC2)c2cc(N3CCNCC3)c(F)cc2c1=O [ciprofloxacin] |  | production of dsDNA breaks |
